Test results taken from US10597388B2, “Pyridazinone herbicides” (FMC CORPORATION, priority 2014, dated 2020).

Columns and labels:
Assay in all cases: Test D controlled growth environment herbicide test, pre- and postemergence
Type in all cases: in vivo
[1] = system: barley, winter (winter barley, Hordeum vulgare)
Method in brief: (§1)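 Rating is visual, 0–100 scale (100 = complete control), made against untreated plants 14–21 d after treatment in controlled growth conditions. Postemergence sprays went onto 1- to 4-leaf plants in peat medium; preemergence sprays onto silt loam after sowing; formulation included a surfactant.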

[2] = system: blackgrass (Alopecurus myosuroides)
Method in brief: as §1

[3] = system: bluegrass (annual bluegrass, Poa annua)
Method in brief: as §1

[4] = system: bromegrass, downy (downy bromegrass, Bromus tectorum)
Method in brief: as §1

[5] = system: buckwheat, wild (wild buckwheat, Polygonum convolvulus)
Method in brief: as §1

[6] = system: canarygrass (Phalaris minor)
Method in brief: as §1

[7] = system: foxtail, green (green foxtail, Setaria viridis)
Method in brief: as §1

[8] = system: galium (catchweed bedstraw, Galium aparine)
Method in brief: as §1

[9] = system: lambsquarters (Chenopodium album)
Method in brief: as §1

[10] = system: pigweed (Amaranthus retroflexus)
Method in brief: as §1

[11] = system: ryegrass, Italian (Italian ryegrass, Lolium multiflorum)
Method in brief: as §1

[12] = system: wheat, spring (spring wheat, Triticum aestivum)
Method in brief: as §1

[13] = system: windgrass (Apera spica-venti)
Method in brief: as §1

[14] = Postemergence, 31 g ai/ha, scale 0 to 100 (0 no effect, 100 complete control)
[15] = Postemergence, 125 g ai/ha, visual rating on scale 0 (no effect) to 100 (complete control), 14 to 21 d
[16] = Postemergence, 250 g ai/ha, scale 0 to 100 (0 no effect, 100 complete control)
[17] = Preemergence, 62 g ai/ha, scale 0 to 100 (0 no effect, 100 complete control)
[18] = Preemergence, 125 g ai/ha, scale 0 to 100 (0 no effect, 100 complete control)
[19] = Preemergence, 250 g ai/ha, scale 0 to 100, 0 no effect, 100 complete control
[20] = postemergence, 62 g ai/ha, scale 0 to 100, 0 no effect, 100 complete control

SMILES: CCc1sc2c(C)cc(C)cc2c1-c1c(O)c(C)nn(C)c1=O [Compound 57]
- Barley, Winter plant response rating [1, 14]: 20
- Plant response rating, Barley, Winter [1, 15]: 25
- Plant response rating, Barley, Winter [1, 16]: 25
- Plant response rating (scale of 0 to 100), Barley, Winter ([1]; Preemergence, 31 g ai/ha): 0
- Plant response rating, Barley, Winter [1, 17]: 0
- Plant response rating, Barley, Winter [1, 18]: 5
- Plant response rating, Barley, Winter [1, 19]: 5
- Plant response rating, Barley, Winter [1, 20]: 30
- Blackgrass plant response rating [2, 14]: 15
- Plant response rating, Blackgrass [2, 15]: 55
- Plant response rating, Blackgrass [2, 16]: 75
- Plant response rating (scale of 0 to 100), Blackgrass ([2]; Preemergence, 31 g ai/ha): 25
- Plant response rating, Blackgrass [2, 17]: 35
- Plant response rating, Blackgrass [2, 18]: 70
- Plant response rating, Blackgrass [2, 19]: 80
- Plant response rating, Blackgrass [2, 20]: 45
- Bluegrass plant response rating [3, 14]: 5
- Plant response rating, Bluegrass [3, 15]: 15
- Plant response rating, Bluegrass [3, 16]: 15
- Plant response rating (scale of 0 to 100), Bluegrass ([3]; Preemergence, 31 g ai/ha): 0
- Plant response rating, Bluegrass [3, 17]: 20
- Plant response rating, Bluegrass [3, 18]: 25
- Plant response rating, Bluegrass [3, 19]: 65
- Plant response rating, Bluegrass [3, 20]: 15
- Bromegrass, Downy plant response rating [4, 14]: 15
- Plant response rating, Bromegrass, Downy [4, 15]: 25
- Plant response rating, Bromegrass, Downy [4, 16]: 35
- Plant response rating (scale of 0 to 100), Bromegrass, Downy ([4]; Preemergence, 31 g ai/ha): 0
- Plant response rating, Bromegrass, Downy [4, 17]: 5
- Plant response rating, Bromegrass, Downy [4, 18]: 25
- Plant response rating, Bromegrass, Downy [4, 19]: 30
- Plant response rating, Bromegrass, Downy [4, 20]: 20
- Buckwheat, Wild plant response rating [5, 14]: 80
- Plant response rating, Buckwheat, Wild [5, 15]: 85
- Plant response rating, Buckwheat, Wild [5, 16]: 100
- Plant response rating (scale of 0 to 100), Buckwheat, Wild ([5]; Preemergence, 31 g ai/ha): 0
- Plant response rating, Buckwheat, Wild [5, 17]: 10
- Plant response rating, Buckwheat, Wild [5, 18]: 10
- Plant response rating, Buckwheat, Wild [5, 19]: 100
- Plant response rating, Buckwheat, Wild [5, 20]: 85
- Canarygrass plant response rating [6, 14]: 5
- Plant response rating, Canarygrass [6, 15]: 15
- Plant response rating, Canarygrass [6, 16]: 25
- Plant response rating (scale of 0 to 100), Canarygrass ([6]; Preemergence, 31 g ai/ha): 0
- Plant response rating, Canarygrass [6, 17]: 10
- Plant response rating, Canarygrass [6, 18]: 55
- Plant response rating, Canarygrass [6, 19]: 65
- Plant response rating, Canarygrass [6, 20]: 5
- Foxtail, Green plant response rating [7, 14]: 75
- Plant response rating, Foxtail, Green [7, 15]: 75
- Plant response rating, Foxtail, Green [7, 16]: 90
- Plant response rating (scale of 0 to 100), Foxtail, Green ([7]; Preemergence, 31 g ai/ha): 10
- Plant response rating, Foxtail, Green [7, 17]: 70
- Plant response rating, Foxtail, Green [7, 18]: 100
- Plant response rating, Foxtail, Green [7, 19]: 100
- Plant response rating, Foxtail, Green [7, 20]: 75
- Galium plant response rating [8, 14]: 90
- Plant response rating, Galium [8, 15]: 90
- Plant response rating, Galium [8, 16]: 98
- Plant response rating (scale of 0 to 100), Galium ([8]; Preemergence, 31 g ai/ha): 85
- Plant response rating, Galium [8, 17]: 100
- Plant response rating, Galium [8, 18]: 100
- Plant response rating, Galium [8, 19]: 100
- Plant response rating, Galium [8, 20]: 90
- Lambsquarters plant response rating [9, 14]: 75
- Plant response rating, Lambsquarters [9, 15]: 75
- Plant response rating, Lambsquarters [9, 16]: 85
- Plant response rating (scale of 0 to 100), Lambsquarters ([9]; Preemergence, 31 g ai/ha): 100
- Plant response rating, Lambsquarters [9, 17]: 100
- Plant response rating, Lambsquarters [9, 18]: 100
- Plant response rating, Lambsquarters [9, 19]: 100
- Plant response rating, Lambsquarters [9, 20]: 75
- Pigweed plant response rating [10, 14]: 85
- Plant response rating, Pigweed [10, 15]: 100
- Plant response rating, Pigweed [10, 16]: 100
- Plant response rating (scale of 0 to 100), Pigweed ([10]; Preemergence, 31 g ai/ha): 70
- Plant response rating, Pigweed [10, 17]: 75
- Plant response rating, Pigweed [10, 18]: 98
- Plant response rating, Pigweed [10, 19]: 100
- Plant response rating, Pigweed [10, 20]: 85
- Ryegrass, Italian plant response rating [11, 14]: 25
- Plant response rating, Ryegrass, Italian [11, 15]: 75
- Plant response rating, Ryegrass, Italian [11, 16]: 85
- Plant response rating (scale of 0 to 100), Ryegrass, Italian ([11]; Preemergence, 31 g ai/ha): 55
- Plant response rating, Ryegrass, Italian [11, 17]: 75
- Plant response rating, Ryegrass, Italian [11, 18]: 80
- Plant response rating, Ryegrass, Italian [11, 19]: 95
- Plant response rating, Ryegrass, Italian [11, 20]: 50
- Wheat, Spring plant response rating [12, 14]: 0
- Plant response rating, Wheat, Spring [12, 15]: 10
- Plant response rating, Wheat, Spring [12, 16]: 10
- Plant response rating (scale of 0 to 100), Wheat, Spring ([12]; Preemergence, 31 g ai/ha): 5
- Plant response rating, Wheat, Spring [12, 17]: 5
- Plant response rating, Wheat, Spring [12, 18]: 5
- Plant response rating, Wheat, Spring [12, 19]: 10
- Plant response rating, Wheat, Spring [12, 20]: 10
- Windgrass plant response rating [13, 14]: 10
- Plant response rating, Windgrass [13, 15]: 10
- Plant response rating, Windgrass [13, 16]: 15
- Plant response rating (scale of 0 to 100), Windgrass ([13]; Preemergence, 31 g ai/ha): 20
- Plant response rating, Windgrass [13, 17]: 35
- Plant response rating, Windgrass [13, 18]: 65
- Plant response rating, Windgrass [13, 19]: 80
- Plant response rating, Windgrass [13, 20]: 10
